We go through 24 substances from patent US20240393292A1, “ALLERGY ANTIGEN AND EPITOPE THEREOF” (HOYU CO., LTD., priority 2019, published 2024).

The test system of the experiment is IgE antibodies from patients. The experiment can be described thus: Wheat epitope mapping (2): overlapping 10-amino-acid peptide fragments shifted by one amino acid.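 As to Rank of partial sequence as epitope binding to IgE antibody: key = sequence deemed particularly important within the common 15-residue sequence.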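 As to epitope sequence binding to IgE antibody, rank (Key/Preferably/More preferably): key of grades: preferably = shorter partial sequence still acting as epitope; more preferably = sequence improving IgE binding; key = particularly important sequence.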 The experiment is classed as binding, human. Here is the method: The peptides to be synthesized were shifted by one amino acid.
The library was prepared by the same procedure as described above in (A), and the presence or absence of binding of an IgE antibody present in the serum of a patient to each peptide fragment was measured by the same technique as described above. Numeric values determined from images obtained as a result of carrying out only the procedures (1) and (4) to (6) described above in the subsection titled (3) Spotting of cellulose-bound peptide solution were used as control values. The control value of each peptide was subtracted from numeric values determined from images obtained from results about the serum of patients, and the obtained value of the difference was compared with values of the peptides serving as the basis of overlapping.
Chemiluminescence intensity in images obtained by measurement was converted into a numeric value in the same manner as in (A). Numeric values determined from images obtained as a result of carrying out only the procedures (1) and (4) to (6) described above in the subsection titled (3) Spotting of cellulose-bound peptide solution (secondary antibody measurement values) were used as control values. The control value of each peptide was subtracted from numeric values determined from images obtained from results about the serum of patients. When values obtained using the sequences (SEQ ID NOs: 29, 131, 191, 281, 346, 414, 493, 562, 640, 706, 776, 899, 974, 1010, 1089, 1142, 1166, 1209, 1257, 1297, 1367, 1403, 1508, 1566, 1598, 1608, 1685, 1753, 1789, 1836, 1895, 1977, 2004, 2027, 2068, 2154, 2217, 2265, 2309, 2342, 2419, 2491, 2545, 2613, 2631, 2674, 2701, 2774, 2809 and 2830) serving as the basis of overlapping were defined as 100%, it was determined that: a peptide having a value of the difference that was less than 30% had no binding activity against IgE antibodies; a peptide having a value of the difference that was 30% or more and less than 50% had binding activity, albeit poor, against IgE antibodies; a peptide having a value of the difference that was 50% or more and less than 70% had binding activity, albeit somewhat poor, against IgE antibodies; and a peptide having a value of the difference that was 70% or more had equivalent or good binding activity against IgE antibodies and was thus a peptide had remaining binding activity against IgE antibodies.

[1] abbreviates: serum of patient P12 (WDEIA), sequence without X.
Setting [2] is: serum of patient P50 (child, general immediate type allergy to wheat), sequence without X.

For “1944 (QFPGQQQ; REGION 1..7: note = epitope) [compound 1944]”, the “epitope sequence binding to IgE antibody, rank (Key/Preferably/More preferably)” value (serum of patient P22 (WDEIA)) was “More preferably”.
“1908 (QVPLVQQ; REGION 1..7: note = epitope) [compound 1908]”: the “epitope sequence binding to IgE antibody, rank (Key/Preferably/More preferably)” value (serum of patient P7 (WDEIA)) is on record as “Preferably”.
Regarding “1357 (NVEN; REGION 1..4: note = epitope) [compound 1357]”, the “Epitope sequence binding to IgE antibody, rank of the sequence” value (serum of patient P36 (WDEIA), sequence without X) is on record as “Key”.
For the substance “1798 (EALPKFLKN; REGION 1..9: note = epitope) [compound 1798]”, for the setting “serum of patient P15 (WDEIA)”, the “epitope sequence binding to IgE antibody, rank (Key/Preferably/More preferably)” value is on record as “Preferably”.
In the case of “1580 (QPFPQTQQPQ; REGION 1..10: note = epitope) [compound 1580]”, the “Rank of partial sequence as epitope binding to IgE antibody” value (“Rank of partial sequence” below) (serum of patient P20 (WDEIA), sequence without X) is given as “Further preferably”.
As to “1822 (SGKELEALPK; REGION 1..10: note = epitope) [compound 1822]”, under “serum of patient P35 (WDEIA)”, the “epitope sequence binding to IgE antibody, rank (Key/Preferably/More preferably)” value was “Key”.
As for “1840 (RTLQ; REGION 1..4: note = epitope) [compound 1840]”, the “epitope sequence binding to IgE antibody, rank (Key/Preferably/More preferably)” value (serum of patient P5 (WDEIA)) is listed as “Key”.
On to “2652 (KEAAEM; REGION 1..6: note = epitope) [compound 2652]”, for which the “Epitope sequence binding to IgE antibody, rank of the sequence” value (serum of patient P31 (WDEIA), partial sequence) is reported as “Preferably”.
With “1869 (YTVRTLQRT; REGION 1..9: note = epitope) [compound 1869]”, the “epitope sequence binding to IgE antibody, rank (Key/Preferably/More preferably)” value (serum of patient P29 (WDEIA)) is on record as “More preferably”.
As to “1719 (EAANF; REGION 1..5: note = epitope) [compound 1719]”, the “epitope sequence binding to IgE antibody, rank (Key/Preferably/More preferably)” value (serum of patient P36 (WDEIA)) is on record as “Preferably”.
For the substance “1382 (PWQQQPLPP; REGION 1..9: note = epitope) [compound 1382]”, the “Epitope sequence binding to IgE antibody, rank of the sequence” value under setting [1] is on record as “Key”.
Take “1621 (YNPD; REGION 1..4: note = epitope) [compound 1621]”: the “Rank of partial sequence” value (serum of patient P24 (WDEIA), sequence without X) was “Key”.
As to “1964 (QQQFPGQQ; REGION 1..8: note = epitope) [compound 1964]”, where the note is “serum of patient P33 (WDEIA)”, the “epitope sequence binding to IgE antibody, rank (Key/Preferably/More preferably)” value is reported as “More preferably”.
As for “1824 (LPKFLK; REGION 1..6: note = epitope) [compound 1824]”, where the note is “serum of patient P36 (WDEIA)”, the “epitope sequence binding to IgE antibody, rank (Key/Preferably/More preferably)” value was “Key”.
Take “1532 (QVPLVQQQ; REGION 1..8: note = epitope) [compound 1532]”: the “Rank of partial sequence” value (serum of patient P14 (WDEIA), sequence without X) is “Preferably”.
Regarding “2461 (LKAWSG; REGION 1..6: note = epitope) [compound 2461]”, under setting [2], the “Epitope sequence binding to IgE antibody, rank of the sequence (Key/Preferably/More preferably/Further preferably)” value is given as “More preferably”.
On to “1383 (PPQQQ; REGION 1..5: note = epitope) [compound 1383]”, for which the “Epitope sequence binding to IgE antibody, rank of the sequence” value under setting [1] was “Key”.
On to “1723 (KEAANF; REGION 1..6: note = epitope) [compound 1723]”, for which the “epitope sequence binding to IgE antibody, rank (Key/Preferably/More preferably)” value (serum of patient P50 (child, general immediate type allergy to wheat)) was “Key”.
As to “1632 (YNPD; REGION 1..4: note = epitope) [compound 1632]”, the “Rank of partial sequence” value (serum of patient P29 (WDEIA), sequence without X) is “Key”.
Turning to “2604 (YQLVQ; REGION 1..5: note = epitope) [compound 2604]”, the “Epitope sequence binding to IgE antibody, rank of the sequence” value (serum of patient P54 (child, general immediate type allergy to wheat), partial sequence) is reported as “Preferably”.
On to “1631 (DKVPFVPISG; REGION 1..10: note = epitope) [compound 1631]”, for which the “Rank of partial sequence” value (serum of patient P28 (WDEIA), sequence without X) is recorded as “Key”.
For the substance “1494 (YLQPQQPISQ; REGION 1..10: note = epitope) [compound 1494]”, the “Rank of partial sequence” value (serum of patient G6 (adult, general immediate type allergy to wheat), sequence without X) is “Preferably”.
On to “2294 (LGGIDKRVIE; REGION 1..10: note = epitope) [compound 2294]”, for which the “Epitope sequence binding to IgE antibody, rank of the sequence (Key/Preferably/More preferably/Further preferably)” value under setting [2] is “More preferably”.
With “2423 (AWSGKTEN; REGION 1..8: note = epitope) [compound 2423]”, the “Epitope sequence binding to IgE antibody, rank of the sequence (Key/Preferably/More preferably)” value under setting [1] is listed as “More preferably”.
